The text below walks through data of paper PMC12311865, “In Vitro Evaluation of the Potential Interactions of Zearalenone-14-sulfate and Zearalenone-14-glucuronide with Human Cytochrome P450 Enzymes, Organic Anion Transporting Polypeptides, and ATP-Binding Cassette Multidrug Transporters” (ACS Omega, 2025).

One series concerns the target T1, MDR1 (Homo sapiens, UniProt P08183).
T1 construct: made in house; host or cells: Sf9 insect cells (baculovirus)
Nature of the series: MDR1-mediated NMQ vesicular transport (Sf9 membrane vesicles). The format is biochemical. The settings on record: 0–50 μM; NMQ 5 μM. As for the experimental part: Experiments were performed in insect membrane vesicles, as described previously. Briefly, human MDR1, BCRP, and MRP2 were expressed in Sf9 insect cells by baculoviruses. On the third day of infection, cells were collected and membrane vesicles were obtained by mechanical disruption and differential centrifugation. To get full activity for BCRP, the cholesterol levels of the vesicles were adjusted to the level of mammalian membranes. Vesicles were stored at −80 °C, and the total protein content of the preparations was measured by the Lowry method (used as a reference for the quantity). […] A 100 μL volume of fluorescence stabilizer was added to the samples (DMSO for LY, 0.1 M H2SO4 for NMQ, and 0.1 M NaOH for CDCF). Fluorescence of samples was measured by plate readers (Victor X3 and Enspire PerkinElmer; Waltham, MA) at appropriate wavelengths (filters in the Victor X3 reader were 405/535 nm for LY and 492/635 nm for CDCF; while in the Enspire reader, NMQ was measured at 360/430 nm excitation/emission wavelengths). ABC-related transport was calculated by subtracting passive uptake measured without Mg-ATP from values measured in the presence of Mg-ATP.

The target of another series is T2, CYP2C9 (Homo sapiens, UniProt P11712).
T2 construct: purchased Merck
T2 sequence (P11712 whole entry): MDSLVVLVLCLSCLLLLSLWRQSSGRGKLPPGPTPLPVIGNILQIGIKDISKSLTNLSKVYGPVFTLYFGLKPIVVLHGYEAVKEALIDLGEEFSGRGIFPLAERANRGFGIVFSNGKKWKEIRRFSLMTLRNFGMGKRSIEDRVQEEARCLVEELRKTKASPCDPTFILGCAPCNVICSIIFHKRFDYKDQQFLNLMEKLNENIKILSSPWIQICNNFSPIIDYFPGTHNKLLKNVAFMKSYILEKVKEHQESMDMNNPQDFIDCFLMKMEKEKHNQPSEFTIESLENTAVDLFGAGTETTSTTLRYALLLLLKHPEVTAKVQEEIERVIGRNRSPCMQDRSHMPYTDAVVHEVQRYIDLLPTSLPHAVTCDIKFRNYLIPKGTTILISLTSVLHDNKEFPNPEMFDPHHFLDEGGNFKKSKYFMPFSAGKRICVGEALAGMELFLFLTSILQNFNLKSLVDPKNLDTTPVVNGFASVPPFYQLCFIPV
Also noted: method as in our previous study. The settings on record: ref our previous study; cited from earlier work.

A further series addresses T3, CYP3A4 (Homo sapiens, UniProt P08684).
T3 construct: purchased Merck
Also noted: method as in our previous study. The settings on record: ref our previous study; cited from earlier work.

Another series addresses T4, OATP1A2 (Homo sapiens, UniProt P46721).
T4 construct: expressed in transfected cells; host or cells: A431
T4 sequence (P46721 1-670): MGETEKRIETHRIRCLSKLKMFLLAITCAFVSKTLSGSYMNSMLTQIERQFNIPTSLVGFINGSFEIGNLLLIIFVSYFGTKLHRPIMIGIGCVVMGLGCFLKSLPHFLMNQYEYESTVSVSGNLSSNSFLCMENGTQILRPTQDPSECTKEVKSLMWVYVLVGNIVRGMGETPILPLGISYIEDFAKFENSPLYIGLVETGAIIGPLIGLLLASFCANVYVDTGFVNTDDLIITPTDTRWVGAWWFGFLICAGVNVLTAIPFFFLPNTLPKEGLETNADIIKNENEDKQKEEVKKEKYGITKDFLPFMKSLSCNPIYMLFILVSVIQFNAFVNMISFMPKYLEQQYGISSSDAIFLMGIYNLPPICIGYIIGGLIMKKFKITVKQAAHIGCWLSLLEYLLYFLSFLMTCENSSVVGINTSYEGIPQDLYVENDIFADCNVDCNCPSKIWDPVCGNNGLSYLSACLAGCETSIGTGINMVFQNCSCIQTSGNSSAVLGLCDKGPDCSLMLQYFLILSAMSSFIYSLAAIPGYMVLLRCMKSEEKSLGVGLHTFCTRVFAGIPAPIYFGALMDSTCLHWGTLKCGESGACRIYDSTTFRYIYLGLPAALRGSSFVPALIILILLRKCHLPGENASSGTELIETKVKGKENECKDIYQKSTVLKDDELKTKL
Also noted: method as in earlier report. Particulars: same experimental model; ref earlier report; cited from earlier work.

For another series, the target named is T5, OATP1B1 (Homo sapiens, UniProt Q9Y6L6).
T5 construct: expressed in transfected cells; host or cells: A431
T5 sequence (Q9Y6L6 1-691): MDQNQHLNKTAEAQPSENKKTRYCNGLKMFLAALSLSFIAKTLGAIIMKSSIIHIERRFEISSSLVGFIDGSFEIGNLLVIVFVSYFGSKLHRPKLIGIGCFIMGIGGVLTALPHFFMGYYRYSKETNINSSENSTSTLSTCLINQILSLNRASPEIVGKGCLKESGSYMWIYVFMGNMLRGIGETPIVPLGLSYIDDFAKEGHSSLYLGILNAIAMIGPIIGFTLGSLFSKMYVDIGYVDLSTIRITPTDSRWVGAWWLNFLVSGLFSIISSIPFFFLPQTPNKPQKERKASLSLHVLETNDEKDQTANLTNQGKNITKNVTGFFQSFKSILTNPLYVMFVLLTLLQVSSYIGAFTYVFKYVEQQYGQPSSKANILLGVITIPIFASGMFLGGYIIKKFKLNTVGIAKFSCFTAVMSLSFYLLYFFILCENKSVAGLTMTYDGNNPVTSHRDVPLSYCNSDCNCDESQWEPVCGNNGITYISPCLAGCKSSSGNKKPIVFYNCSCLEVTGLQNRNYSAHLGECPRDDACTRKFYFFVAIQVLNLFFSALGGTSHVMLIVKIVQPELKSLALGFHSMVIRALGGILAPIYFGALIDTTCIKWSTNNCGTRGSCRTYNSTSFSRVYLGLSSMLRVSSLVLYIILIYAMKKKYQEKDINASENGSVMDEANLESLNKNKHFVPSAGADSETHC
Also noted: method as in earlier report. The settings on record: same experimental model; ref earlier report; cited from earlier work.

Another series has as its target T6, CYP1A2 (Homo sapiens, UniProt P05177).
T6 sequence (P05177 1-516): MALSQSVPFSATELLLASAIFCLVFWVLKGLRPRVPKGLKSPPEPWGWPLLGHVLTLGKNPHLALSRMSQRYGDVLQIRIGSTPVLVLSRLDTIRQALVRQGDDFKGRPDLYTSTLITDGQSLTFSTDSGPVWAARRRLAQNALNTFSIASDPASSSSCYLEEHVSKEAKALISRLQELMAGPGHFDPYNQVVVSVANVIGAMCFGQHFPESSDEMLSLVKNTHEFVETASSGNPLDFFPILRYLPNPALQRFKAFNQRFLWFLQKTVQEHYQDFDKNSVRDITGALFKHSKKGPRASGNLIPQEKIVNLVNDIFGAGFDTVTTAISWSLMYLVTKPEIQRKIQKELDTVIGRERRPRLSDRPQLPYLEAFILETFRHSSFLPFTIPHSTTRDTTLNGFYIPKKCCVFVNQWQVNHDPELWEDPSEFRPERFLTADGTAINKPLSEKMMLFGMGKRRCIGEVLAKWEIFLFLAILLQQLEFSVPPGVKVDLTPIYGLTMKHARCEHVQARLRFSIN
Also noted: purchased Abcam ab211075; method as in our previous study. Particulars: ref our previous study; cited from earlier work.

By IC50 is commonly meant the concentration needed to halve the response being measured.

T1 sequence (P08183 whole entry): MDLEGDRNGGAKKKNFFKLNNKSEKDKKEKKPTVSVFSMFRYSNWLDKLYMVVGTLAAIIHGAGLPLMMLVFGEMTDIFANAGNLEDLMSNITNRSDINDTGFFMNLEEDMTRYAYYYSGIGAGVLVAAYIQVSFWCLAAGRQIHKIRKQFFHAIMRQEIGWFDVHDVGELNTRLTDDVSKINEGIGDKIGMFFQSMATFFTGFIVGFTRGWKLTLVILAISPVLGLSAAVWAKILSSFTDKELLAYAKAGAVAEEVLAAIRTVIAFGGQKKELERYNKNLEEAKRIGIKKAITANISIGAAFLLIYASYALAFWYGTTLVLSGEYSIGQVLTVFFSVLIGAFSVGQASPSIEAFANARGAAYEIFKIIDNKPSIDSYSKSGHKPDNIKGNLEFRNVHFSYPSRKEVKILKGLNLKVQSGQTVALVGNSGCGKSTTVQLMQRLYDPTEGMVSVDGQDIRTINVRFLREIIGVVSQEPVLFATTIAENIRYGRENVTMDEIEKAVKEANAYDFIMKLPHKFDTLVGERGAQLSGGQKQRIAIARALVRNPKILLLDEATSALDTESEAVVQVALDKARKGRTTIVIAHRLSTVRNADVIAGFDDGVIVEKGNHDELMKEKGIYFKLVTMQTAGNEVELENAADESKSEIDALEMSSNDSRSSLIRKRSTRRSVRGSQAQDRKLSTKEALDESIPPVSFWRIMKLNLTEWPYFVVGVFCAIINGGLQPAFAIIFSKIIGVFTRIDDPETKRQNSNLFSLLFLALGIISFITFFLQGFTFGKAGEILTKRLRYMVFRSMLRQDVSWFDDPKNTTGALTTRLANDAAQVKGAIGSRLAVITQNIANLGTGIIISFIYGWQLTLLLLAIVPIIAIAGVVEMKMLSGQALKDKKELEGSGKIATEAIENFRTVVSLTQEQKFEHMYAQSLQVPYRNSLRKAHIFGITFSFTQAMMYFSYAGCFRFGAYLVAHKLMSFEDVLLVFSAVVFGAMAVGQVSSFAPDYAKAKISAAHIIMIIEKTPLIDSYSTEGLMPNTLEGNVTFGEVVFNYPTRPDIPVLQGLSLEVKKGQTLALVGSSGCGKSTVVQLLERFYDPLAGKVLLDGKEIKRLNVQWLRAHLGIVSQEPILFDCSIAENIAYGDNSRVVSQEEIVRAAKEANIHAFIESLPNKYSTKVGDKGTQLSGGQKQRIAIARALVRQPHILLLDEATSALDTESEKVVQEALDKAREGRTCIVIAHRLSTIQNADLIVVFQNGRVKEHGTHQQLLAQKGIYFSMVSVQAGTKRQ
T3 sequence (P08684 whole entry): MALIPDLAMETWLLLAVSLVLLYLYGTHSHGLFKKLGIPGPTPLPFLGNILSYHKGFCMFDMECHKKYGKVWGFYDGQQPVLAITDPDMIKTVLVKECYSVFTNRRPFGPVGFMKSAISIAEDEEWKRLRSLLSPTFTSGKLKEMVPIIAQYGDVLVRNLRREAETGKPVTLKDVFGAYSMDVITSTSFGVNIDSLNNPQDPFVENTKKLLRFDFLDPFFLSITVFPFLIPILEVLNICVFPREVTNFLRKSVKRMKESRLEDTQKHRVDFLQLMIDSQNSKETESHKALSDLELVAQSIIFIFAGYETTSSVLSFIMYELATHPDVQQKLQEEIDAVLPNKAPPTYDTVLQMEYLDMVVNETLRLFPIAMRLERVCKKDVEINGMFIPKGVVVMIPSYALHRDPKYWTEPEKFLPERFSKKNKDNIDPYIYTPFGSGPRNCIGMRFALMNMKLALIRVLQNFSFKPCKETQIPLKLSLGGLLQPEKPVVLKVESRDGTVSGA

With `C[C@H]1CCCC(=O)CCC/C=C/c2cc(O)cc(O)c2C(=O)O1` [ZEN, Zearalenone], at MDR1, the “effect on MDR1-driven NMQ transport” value is recorded as “inhibition only at 50 μM concentration”. The IC50 on CYP2C9 is 9.8 µM; at CYP3A4, 2 µM; at OATP1A2, 2.3 µM; on OATP1B1, over 10 µM; at CYP1A2 it was 7.8 µM.
